Consider one compound from patent US7713969B2, “Compositions and methods for treatment of cancer” (ArQule, Inc., priority 2005, dated 2010).

Type in all cases: cell-based
The subject of one assay is HT-29. Put plainly: Colony formation assay (CFA). The note with it: Homo sapiens; HT-29, 24 hours exposure, colonies after 14-21 days; read-out: (−)-trans IC50 CFA. On the procedure:
(§1) To determine c-met inhibition, exponentially growing MCF-7 and MDA-MB-231 human breast cancer cells, DLD1 and HT29 human colon cancer cells, PACA2 and PANC-1 human pancreatic cancer cells and NCI-H441 human non-small cell lung cancer cells (H441) were serum starved in 0.5% FBS and treated with increasing amounts of (−)-trans-3-(5,6-dihydro-4H-pyrrolo [3,2,1-ij]quinolin-1-yl)-4(1H-indol-3-yl)pyrrolidine-2,5-dione for 24 hours as indicated. Cells were then left unstimulated or stimulated with 100 ng/mL HGF for 10 minutes and whole cell extracts were prepared. Whole cell lysates (50 μg) were resolved by SDS-PAGE, transferred onto a PVDF membrane, and an enhanced chemiluminescence assay system (ECL) was used to determine the phosphorylation status of c-Met. A polyclonal antibody against phospho (Y1349) c-Met (phospho-c-Met) was obtained from Biosource International and a monoclonal antibody against β-actin was purchased from Invitrogen. Percent inhibition was determined by densitometry using the Scion Image For colony formation assays (CFA), exponentially growing cells were seeded at 2,000 cells per well in 6-well plates and allowed to attach for 24 hours. Increasing concentrations of (−)-trans-3-(5,6-dihydro-4H-pyrrolo[3,2,1-ij]quinolin-1-yl)-4(1H-indol-3-yl)pyrrolidine-2,5-dione (from 0.01 to 30 μM) were then added to the media for another 24 hours. After 24 hours exposure, the drug was removed and fresh media was added for the next 14-21 days, allowing for colony formation. Cells were fixed and stained with GEMSA (Gibco BRL). Colonies of greater than 50 cells were scored as survivors and percentage of cell survival was plotted to determine the IC50. […] The IC50 of (−)-trans-3-(5,6-dihydro-4H-pyrrolo[3,2,1-ij]quinolin-1-yl)-4(1H-indol-3-yl) pyrrolidine-2,5-dione for c-Met expressing solid tumor types is in the 0.1-0.7 μM range following exposure to (−)-trans-3-(5,6-dihydro-4H-pyrrolo[3,2,1-ij]quinolin-1-yl)-4(1H-indol-3-yl)pyrrolidine-2,5-dione for 24 hours, as determined by colony formation assay (CFA).

The test system of the next assay is PANC-1. Put plainly: Colony formation assay (CFA). The conditions noted are these: Homo sapiens; PANC-1, 24 hours exposure, colonies after 14-21 days; read-out: (−)-trans IC50 CFA. On the procedure:
as §1

Another assay concerns H661. Description: Colony formation assay (CFA). The conditions noted are these: Homo sapiens, NCI-H661; H661, 24 hours exposure, colonies after 14-21 days; read-out: (−)-trans IC50 CFA. On the procedure: as §1
The test system of another assay is MCF-7. Description: Colony formation assay (CFA). The note with it: Homo sapiens, MCF7; MCF-7, 24 hours exposure, colonies after 14-21 days; read-out: (−)-trans IC50 CFA. On the procedure: as §1
The subject of a further assay is H441. Put plainly: Colony formation assay (CFA). The conditions noted are these: Homo sapiens, NCI-H441; H441, 24 hours exposure, colonies after 14-21 days; read-out: (−)-trans IC50 CFA. On the procedure:
as §1

The test system of another assay is DLD-1. Put plainly: Colony formation assay (CFA). The note with it: Homo sapiens; DLD-1, 24 hours exposure, colonies after 14-21 days; read-out: (−)-trans IC50 CFA. On the procedure:
as §1

Another assay relates to PACA2. Description: Colony formation assay (CFA). The conditions noted are these: Homo sapiens, PaCa-2; PACA2, 24 hours exposure, colonies after 14-21 days; read-out: (−)-trans IC50 CFA. On the procedure: as §1
In another assay the test system is H446. Put plainly: Colony formation assay (CFA). The conditions noted are these: Homo sapiens, NCI-H446; H446, 24 hours exposure, colonies after 14-21 days; read-out: (−)-trans IC50 CFA. On the procedure: as §1
The next assay has as its system MDA-MB-231. Description: Colony formation assay (CFA). The note with it: Homo sapiens; MDA-MB-231, 24 hours exposure, colonies after 14-21 days; read-out: (−)-trans IC50 CFA. On the procedure: as §1
The next assay has as its system MDA-MB-231 cells. Put plainly: Cancer cell invasion assay with inserts (Example 85). The conditions noted are these: Homo sapiens, 24 hours pretreatment, 24 hours invasion, read-out: estimated IC50, invasive phenotype. On the procedure:
MDA-MB-231 cells were pretreated with indicated concentrations of (−)-trans-3-(5,6-dihydro-4H-pyrrolo[3,2,1-ij]quinolin-1-yl)-4(1H-indol-3-yl)pyrrolidine-2,5-dione for 24 hours. 300 μl of each cell suspension (at a concentration 0.5×10^6 cells/mL in serum free medium) was placed in individual inserts and incubated for 24 hours at 37° C. The bottom wells housing the inserts contained 500 μl of 10% FBS medium. […] Each insert was then transferred to a clean well containing cell stain solution and incubated for 10 minutes at room temperature. The bottom of the insert was destained by incubating in extraction solution and OD was measured at 560 nm. (−)-trans-3-(5,6-dihydro-4H-pyrrolo[3,2,1-ij]quinolin-1-yl)-4(1H-indol-3-yl) pyrrolidine-2,5-dione inhibited the migration across interstices in confluent cultures of MDA-MB-231 cancer cells. The data represent the mean of two independent experiments. (See FIG. 9)

Assay [1] has as its system A549 human lung cancer cells. Description: Annexin V / propidium iodide staining (Example 84). The conditions noted are these: 1.2 μM, 38 hours. On the procedure:
A549 human lung cancer cells in a 96-well plate (Costar 3603, 5,000/well) were treated with either A) DMSO as a control; B) 1.2 μM (−)-trans-3-(5,6-dihydro-4H-pyrrolo[3,2,1-ij]quinolin-1-yl)-4(1H-indol-3-yl)pyrrolidine-2,5-dione for 38 hours before addition of 1:200 fluorescent Annexin V (green) and 1:500 Propidium iodide (magenta, final concentration of 1 μg/mL). The labeling procedure was allowed to process at 37° C. for 20 minutes followed by image acquisition and analysis using an IC100 Image Cytometer (Beckman Coulter, Inc) with 10× amplification.
To determine whether (−)-trans-3-(5,6-dihydro-4H-pyrrolo[3,2,1-ij]quinolin-1-yl)-4(1H-indol-3-yl)pyrrolidine-2,5-dione works primarily through a cytostatic or apoptotic mechanism, cancer cells exposed to (−)-trans-3-(5,6-dihydro-4H-pyrrolo[3,2,1-ij]quinolin-1-yl)-4(1H-indol-3-yl) pyrrolidine-2,5-dione were stained with fluorescently labeled Annexin V (green fluorescence) and propidium iodide (bright magenta fluorescence). Annexin V is a well-validated reagent that specifically binds with high affinity to externalized membrane phosphatidylserine, an early marker of the onset of apoptosis, while propidium iodide is a marker for dead cells. […] (See FIG. 8)

Each structure is given as a SMILES string.

Broadly, the IC50 is the midpoint of a concentration-inhibition curve. As to `O=C1NC(=O)C(c2cn3c4c(cccc24)CCC3)C1c1c[nH]c2ccccc12` (single isomer, unassigned; (-)), the IC50 stood at 200 nM in the assay on HT-29; 500 nM with PANC-1; 5000 nM in the assay on H661; 400 nM in the assay with MCF-7; 200 nM with H441; 700 nM in the assay on DLD-1. Further, the IC50 in the assay on PACA2 is 300 nM; with H446, 4000 nM; with MDA-MB-231, 300 nM; in the assay on MDA-MB-231 cells, approximately 500 nM. Besides, in assay [1], the “apoptosis evidenced by Annexin V staining” value is on record as “induced cells to undergo apoptosis”. Further, the “cells that co-stain with both Annexin V and propidium iodide” value in assay [1] is given as 10-20%.
